Assays:
Experiment in all cases: scanMAX Kinase panel (DiscoverX)
Type in all cases: binding
[1] = target: T1, ABL1(H396P)-nonphosphorylated (Homo sapiens, UniProt P00519, H396P); conditions: read-out: % Cont @ 1 uM
T1 construct: purchased DiscoverX
How it was run: (§1)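 Kinase was treated with compound at a single 1 μM concentration (DMSO vehicle), and activity relative to controls was normalised as % control.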

[2] = target: T2, CSF1R (Homo sapiens, UniProt P07333); conditions: read-out: % Cont @ 1 uM
T2 construct: purchased DiscoverX scanMAX Kinase panel
How it was run: as §1

[3] = target: T3, CSK (Homo sapiens, UniProt P41240)
T3 construct: purchased DiscoverX scanMAX Kinase panel
How it was run: as §1

[4] = target: T4, DDR1 (Homo sapiens, UniProt Q08345); conditions: read-out: % Cont @ 1 uM
T4 construct: purchased DiscoverX scanMAX Kinase panel
How it was run: as §1

[5] = target: T5, EGFR (Homo sapiens, UniProt P00533)
T5 construct: purchased DiscoverX scanMAX Kinase panel
How it was run: as §1

[6] = target: T6, EGFR(G719C) (Homo sapiens, UniProt P00533, G719C)
T6 construct: purchased DiscoverX scanMAX Kinase panel
How it was run: as §1

[7] = target: T7, EGFR(G719S) (Homo sapiens, UniProt P00533, G719S)
T7 construct: purchased DiscoverX scanMAX Kinase panel
How it was run: as §1

[8] = target: T8, EGFR(L858R) (Homo sapiens, UniProt P00533, L858R)
T8 construct: purchased DiscoverX scanMAX Kinase panel
How it was run: as §1

[9] = target: T9, EPHB6 (Homo sapiens, UniProt O15197); conditions: read-out: % Cont @ 1 uM
T9 construct: purchased DiscoverX scanMAX Kinase panel
How it was run: as §1

[10] = target: T10, FGFR3 (Homo sapiens, UniProt P22607); conditions: read-out: % Cont @ 1 uM
T10 construct: purchased DiscoverX scanMAX Kinase panel
How it was run: as §1

[11] = target: T11, FGFR4 (Homo sapiens, UniProt P22455); conditions: read-out: % Cont @ 1 uM
T11 construct: purchased DiscoverX scanMAX Kinase panel
How it was run: as §1

[12] = target: T12, FGR (Homo sapiens, UniProt P09769); conditions: read-out: % Cont @ 1 uM
T12 construct: purchased DiscoverX scanMAX Kinase panel
How it was run: as §1

[13] = target: T13, FLT1 (Homo sapiens, UniProt P17948); conditions: read-out: % Cont @ 1 uM
T13 construct: purchased DiscoverX scanMAX Kinase panel
How it was run: as §1

[14] = target: T14, FLT3(D835H) (Homo sapiens, UniProt P36888, D835H); conditions: read-out: % Cont @ 1 uM
T14 construct: purchased DiscoverX scanMAX Kinase panel
How it was run: as §1

[15] = target: T15, FLT3(N841I) (Homo sapiens, UniProt P36888, N841I); conditions: read-out: % Cont @ 1 uM
T15 construct: purchased DiscoverX scanMAX Kinase panel
How it was run: as §1

[16] = target: T16, GCN2(Kin.Dom.2, S808G) (Homo sapiens, UniProt Q9P2K8, S808G); conditions: read-out: % Cont @ 1 uM
T16 construct: GCN2(Kin.Dom.2,S808G); purchased DiscoverX scanMAX Kinase panel
How it was run: as §1

[17] = target: T17, HPK1 (Homo sapiens, UniProt Q92918); conditions: read-out: % Cont @ 1 uM
T17 construct: purchased DiscoverX scanMAX Kinase panel
How it was run: as §1

[18] = target: T18, IKK-alpha (Homo sapiens, UniProt O15111); conditions: read-out: % Cont @ 1 uM
T18 construct: purchased DiscoverX scanMAX Kinase panel
How it was run: as §1

[19] = target: T19, IRAK1 (Homo sapiens, UniProt P51617); conditions: read-out: % Cont @ 1 uM
T19 construct: purchased DiscoverX scanMAX Kinase panel
How it was run: as §1

[20] = target: T20, KIT(L576P) (Homo sapiens, UniProt P10721, L576P); conditions: read-out: % Cont @ 1 uM
T20 construct: purchased DiscoverX scanMAX Kinase panel
How it was run: as §1

[21] = target: T21, KIT(V559D, V654A) (Homo sapiens, UniProt P10721, V559D/V654A); conditions: read-out: % Cont @ 1 uM
T21 construct: purchased DiscoverX scanMAX Kinase panel
How it was run: as §1

[22] = target: T22, LIMK1 (Homo sapiens, UniProt P53667); conditions: read-out: % Cont @ 1 uM
T22 construct: purchased DiscoverX scanMAX Kinase panel
How it was run: as §1

[23] = target: T23, LRRK2 (Homo sapiens, UniProt Q5S007); conditions: read-out: % Cont @ 1 uM
T23 construct: purchased DiscoverX scanMAX Kinase panel
How it was run: as §1

[24] = target: T24, MAP4K3 (Homo sapiens, UniProt Q8IVH8)
T24 construct: purchased DiscoverX scanMAX Kinase panel
How it was run: as §1

[25] = target: T25, MAP4K4 (Homo sapiens, UniProt O95819); conditions: read-out: % Cont @ 1 uM
T25 construct: purchased DiscoverX scanMAX Kinase panel
How it was run: as §1

[26] = target: T26, MEK5 (Homo sapiens, UniProt Q13163); conditions: read-out: % Cont @ 1 uM
T26 construct: purchased DiscoverX scanMAX Kinase panel
How it was run: as §1

[27] = target: T27, MKNK2 (Homo sapiens, UniProt Q9HBH9); conditions: read-out: % Cont @ 1 uM
T27 construct: purchased DiscoverX scanMAX Kinase panel
How it was run: as §1

[28] = target: T28, MLK3 (Homo sapiens, UniProt Q16584)
T28 construct: purchased DiscoverX scanMAX Kinase panel
How it was run: as §1

[29] = target: T29, NEK1 (Homo sapiens, UniProt Q96PY6); conditions: read-out: % Cont @ 1 uM
T29 construct: purchased DiscoverX scanMAX Kinase panel
How it was run: as §1

[30] = target: T30, NLK (Homo sapiens, UniProt Q9UBE8); conditions: read-out: % Cont @ 1 uM
T30 construct: purchased DiscoverX scanMAX Kinase panel
How it was run: as §1

[31] = target: T31, RET(M918T) (Homo sapiens, UniProt P07949, M918T); conditions: read-out: % Cont @ 1 uM
T31 construct: purchased DiscoverX scanMAX Kinase panel
How it was run: as §1

[32] = target: T32, RET(V804M) (Homo sapiens, UniProt P07949, V804M); conditions: read-out: % Cont @ 1 uM
T32 construct: purchased DiscoverX scanMAX Kinase panel
How it was run: as §1

[33] = target: T33, RIPK1 (Homo sapiens, UniProt Q13546); conditions: read-out: % Cont @ 1 uM
T33 construct: purchased DiscoverX scanMAX Kinase panel
How it was run: as §1

[34] = target: T34, SRC (Homo sapiens, UniProt P12931); conditions: read-out: % Cont @ 1 uM
T34 construct: purchased DiscoverX scanMAX Kinase panel
How it was run: as §1

[35] = target: T35, TAOK3 (Homo sapiens, UniProt Q9H2K8); conditions: read-out: % Cont @ 1 uM
T35 construct: purchased DiscoverX scanMAX Kinase panel
How it was run: as §1

[36] = target: T36, TNK1 (Homo sapiens, UniProt Q13470); conditions: read-out: % Cont @ 1 uM
T36 construct: purchased DiscoverX scanMAX Kinase panel
How it was run: as §1

[37] = target: T37, TXK (Homo sapiens, UniProt P42681); conditions: read-out: % Cont @ 1 uM
T37 construct: purchased DiscoverX scanMAX Kinase panel
How it was run: as §1

[38] = target: T38, p38-delta (Homo sapiens, UniProt O15264); conditions: read-out: % Cont @ 1 uM
T38 construct: purchased DiscoverX scanMAX Kinase panel
How it was run: as §1

T32 sequence (P07949 29-1114 V804M): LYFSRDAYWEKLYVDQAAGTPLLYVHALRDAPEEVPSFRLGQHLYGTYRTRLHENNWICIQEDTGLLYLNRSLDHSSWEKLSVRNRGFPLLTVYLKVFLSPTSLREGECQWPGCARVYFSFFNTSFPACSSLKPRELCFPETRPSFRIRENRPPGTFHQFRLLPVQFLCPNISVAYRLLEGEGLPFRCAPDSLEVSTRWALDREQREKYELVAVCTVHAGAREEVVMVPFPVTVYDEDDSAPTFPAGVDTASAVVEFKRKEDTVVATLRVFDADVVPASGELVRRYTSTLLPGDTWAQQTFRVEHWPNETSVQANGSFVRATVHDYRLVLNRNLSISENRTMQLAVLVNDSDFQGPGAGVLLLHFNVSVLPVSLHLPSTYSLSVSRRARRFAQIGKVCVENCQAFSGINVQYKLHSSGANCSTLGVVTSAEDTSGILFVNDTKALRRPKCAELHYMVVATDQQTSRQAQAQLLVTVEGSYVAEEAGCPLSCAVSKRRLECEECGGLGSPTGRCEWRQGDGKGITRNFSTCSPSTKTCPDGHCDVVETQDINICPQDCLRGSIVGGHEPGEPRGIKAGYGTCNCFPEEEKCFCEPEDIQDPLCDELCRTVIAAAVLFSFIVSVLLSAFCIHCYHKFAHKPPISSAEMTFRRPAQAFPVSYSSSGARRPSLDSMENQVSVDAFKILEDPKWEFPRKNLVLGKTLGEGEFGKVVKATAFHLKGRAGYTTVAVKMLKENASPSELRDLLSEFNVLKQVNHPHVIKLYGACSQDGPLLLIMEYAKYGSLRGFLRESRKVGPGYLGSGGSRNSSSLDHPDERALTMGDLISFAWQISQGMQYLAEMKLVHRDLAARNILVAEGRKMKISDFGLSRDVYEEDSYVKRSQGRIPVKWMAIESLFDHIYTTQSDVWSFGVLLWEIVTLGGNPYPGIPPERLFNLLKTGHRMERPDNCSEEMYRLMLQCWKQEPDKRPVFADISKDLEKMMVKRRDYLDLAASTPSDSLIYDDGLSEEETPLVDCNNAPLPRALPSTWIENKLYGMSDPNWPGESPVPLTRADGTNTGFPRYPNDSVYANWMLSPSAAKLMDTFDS
T2 sequence (P07333 20-972): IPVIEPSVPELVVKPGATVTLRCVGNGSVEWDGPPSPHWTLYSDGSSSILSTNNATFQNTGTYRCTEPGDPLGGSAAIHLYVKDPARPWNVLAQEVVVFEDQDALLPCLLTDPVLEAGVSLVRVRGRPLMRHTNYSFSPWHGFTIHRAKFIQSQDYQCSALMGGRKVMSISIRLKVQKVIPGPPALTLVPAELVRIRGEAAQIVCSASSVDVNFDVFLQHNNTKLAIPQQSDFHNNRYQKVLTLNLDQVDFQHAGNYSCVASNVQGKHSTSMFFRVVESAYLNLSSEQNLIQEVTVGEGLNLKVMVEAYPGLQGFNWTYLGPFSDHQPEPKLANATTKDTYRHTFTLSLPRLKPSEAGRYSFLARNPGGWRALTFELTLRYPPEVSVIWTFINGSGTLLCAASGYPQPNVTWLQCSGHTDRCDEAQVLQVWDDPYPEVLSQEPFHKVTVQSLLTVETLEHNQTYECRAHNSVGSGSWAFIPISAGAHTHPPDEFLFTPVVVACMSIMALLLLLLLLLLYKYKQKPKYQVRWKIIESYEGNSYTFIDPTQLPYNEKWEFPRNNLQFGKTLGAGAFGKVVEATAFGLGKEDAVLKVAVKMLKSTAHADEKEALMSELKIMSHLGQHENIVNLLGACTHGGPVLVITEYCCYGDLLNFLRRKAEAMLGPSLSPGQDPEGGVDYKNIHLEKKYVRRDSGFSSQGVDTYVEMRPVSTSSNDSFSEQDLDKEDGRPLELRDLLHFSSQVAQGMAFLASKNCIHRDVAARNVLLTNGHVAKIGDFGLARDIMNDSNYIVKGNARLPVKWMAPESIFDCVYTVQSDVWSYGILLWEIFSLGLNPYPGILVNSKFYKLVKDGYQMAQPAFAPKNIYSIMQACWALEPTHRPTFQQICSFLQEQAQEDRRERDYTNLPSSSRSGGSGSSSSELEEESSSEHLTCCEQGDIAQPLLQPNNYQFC
T16 sequence (Q9P2K8 590-1001 S808G limits assumed): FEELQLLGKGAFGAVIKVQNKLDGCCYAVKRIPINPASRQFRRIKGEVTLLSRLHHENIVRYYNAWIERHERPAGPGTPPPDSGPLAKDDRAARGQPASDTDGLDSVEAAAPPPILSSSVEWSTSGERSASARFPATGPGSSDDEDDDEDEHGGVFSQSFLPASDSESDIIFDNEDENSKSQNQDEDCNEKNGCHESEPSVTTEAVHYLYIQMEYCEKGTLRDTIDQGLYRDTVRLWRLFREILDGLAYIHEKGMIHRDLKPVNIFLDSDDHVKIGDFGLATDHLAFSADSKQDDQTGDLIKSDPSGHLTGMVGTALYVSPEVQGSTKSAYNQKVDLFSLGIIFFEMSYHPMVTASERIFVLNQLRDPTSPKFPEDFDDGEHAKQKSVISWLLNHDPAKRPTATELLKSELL
T35 sequence (Q9H2K8 whole entry): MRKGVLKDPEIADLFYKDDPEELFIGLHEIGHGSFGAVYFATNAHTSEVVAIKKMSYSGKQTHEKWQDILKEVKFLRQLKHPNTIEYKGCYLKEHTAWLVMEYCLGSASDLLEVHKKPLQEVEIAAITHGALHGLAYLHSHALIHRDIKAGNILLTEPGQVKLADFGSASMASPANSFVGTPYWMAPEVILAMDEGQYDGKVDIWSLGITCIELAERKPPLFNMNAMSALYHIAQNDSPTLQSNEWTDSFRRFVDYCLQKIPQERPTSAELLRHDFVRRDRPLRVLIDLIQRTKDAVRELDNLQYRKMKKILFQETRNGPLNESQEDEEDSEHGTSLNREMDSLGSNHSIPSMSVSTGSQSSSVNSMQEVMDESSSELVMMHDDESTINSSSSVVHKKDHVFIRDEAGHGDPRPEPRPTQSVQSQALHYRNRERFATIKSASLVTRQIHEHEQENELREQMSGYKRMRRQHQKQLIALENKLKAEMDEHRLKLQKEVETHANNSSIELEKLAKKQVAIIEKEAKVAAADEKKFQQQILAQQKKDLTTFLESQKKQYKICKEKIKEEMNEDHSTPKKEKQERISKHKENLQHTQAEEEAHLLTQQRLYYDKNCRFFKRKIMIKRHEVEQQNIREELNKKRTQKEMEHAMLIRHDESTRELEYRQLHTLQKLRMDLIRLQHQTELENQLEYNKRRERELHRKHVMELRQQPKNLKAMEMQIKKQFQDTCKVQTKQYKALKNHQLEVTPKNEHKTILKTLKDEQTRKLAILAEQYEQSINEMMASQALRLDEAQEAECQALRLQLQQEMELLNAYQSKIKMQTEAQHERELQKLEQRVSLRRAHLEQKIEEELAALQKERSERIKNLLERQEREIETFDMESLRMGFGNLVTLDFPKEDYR
T22 sequence (P53667 whole entry): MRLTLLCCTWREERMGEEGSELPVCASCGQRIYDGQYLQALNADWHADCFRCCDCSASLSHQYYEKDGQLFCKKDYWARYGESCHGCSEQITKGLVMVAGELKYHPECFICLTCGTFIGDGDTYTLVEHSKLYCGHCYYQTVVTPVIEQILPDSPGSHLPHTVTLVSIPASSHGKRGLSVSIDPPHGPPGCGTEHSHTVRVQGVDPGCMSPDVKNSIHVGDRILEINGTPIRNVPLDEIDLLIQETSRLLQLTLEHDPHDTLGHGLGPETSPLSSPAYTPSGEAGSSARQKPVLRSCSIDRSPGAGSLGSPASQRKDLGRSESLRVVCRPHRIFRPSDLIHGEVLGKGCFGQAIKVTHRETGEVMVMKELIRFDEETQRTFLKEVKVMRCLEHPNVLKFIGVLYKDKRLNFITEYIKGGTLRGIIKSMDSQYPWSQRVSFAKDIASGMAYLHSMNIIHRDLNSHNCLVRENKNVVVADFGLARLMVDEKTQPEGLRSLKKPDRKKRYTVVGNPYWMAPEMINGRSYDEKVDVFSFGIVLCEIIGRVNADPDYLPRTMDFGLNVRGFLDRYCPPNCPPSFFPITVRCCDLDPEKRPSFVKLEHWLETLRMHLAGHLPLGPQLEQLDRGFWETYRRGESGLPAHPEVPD
T21 sequence (P10721 26-976 V559D/V654A): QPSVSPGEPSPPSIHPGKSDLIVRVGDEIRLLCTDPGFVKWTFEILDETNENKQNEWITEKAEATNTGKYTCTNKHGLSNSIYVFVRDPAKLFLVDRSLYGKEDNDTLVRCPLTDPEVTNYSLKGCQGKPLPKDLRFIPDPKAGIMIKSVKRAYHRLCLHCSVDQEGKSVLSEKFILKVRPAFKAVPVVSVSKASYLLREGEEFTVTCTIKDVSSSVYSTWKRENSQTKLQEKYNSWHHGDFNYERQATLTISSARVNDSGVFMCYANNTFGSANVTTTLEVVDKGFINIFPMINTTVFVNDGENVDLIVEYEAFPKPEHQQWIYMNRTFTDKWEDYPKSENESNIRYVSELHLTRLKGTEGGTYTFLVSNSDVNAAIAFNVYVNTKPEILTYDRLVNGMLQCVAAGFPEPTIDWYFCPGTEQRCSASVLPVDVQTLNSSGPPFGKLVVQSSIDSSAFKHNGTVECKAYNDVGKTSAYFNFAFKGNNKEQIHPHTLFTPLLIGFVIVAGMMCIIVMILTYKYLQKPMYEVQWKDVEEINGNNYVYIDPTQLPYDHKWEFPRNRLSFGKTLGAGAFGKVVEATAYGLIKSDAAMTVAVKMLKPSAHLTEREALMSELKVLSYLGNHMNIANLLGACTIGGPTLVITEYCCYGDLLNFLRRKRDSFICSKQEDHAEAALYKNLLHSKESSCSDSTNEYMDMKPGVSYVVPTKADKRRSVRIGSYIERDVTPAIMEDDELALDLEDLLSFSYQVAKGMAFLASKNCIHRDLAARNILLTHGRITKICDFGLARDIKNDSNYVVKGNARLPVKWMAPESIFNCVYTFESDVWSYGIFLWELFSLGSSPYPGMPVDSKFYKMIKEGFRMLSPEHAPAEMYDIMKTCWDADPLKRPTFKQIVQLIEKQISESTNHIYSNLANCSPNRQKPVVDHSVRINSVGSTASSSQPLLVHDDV
T20 sequence (P10721 26-976 L576P): as the sequence (P10721 26-976 V559D/V654A) above, with D534V, L551P, A629V counted along it
T31 sequence (P07949 29-1114 M918T): as the sequence (P07949 29-1114 V804M) above, with M776V, M890T counted along it

SMILES | remaining binding at 1 µM [1] | remaining binding at 1 µM [2] | % Cont @ 1 uM [3] | remaining binding at 1 µM [4] | % Cont @ 1 uM [5] | % Cont @ 1 uM [6] | % Cont @ 1 uM [7] | % Cont @ 1 uM [8] | remaining binding at 1 µM [9] | remaining binding at 1 µM [10] | remaining binding at 1 µM [11] | remaining binding at 1 µM [12] | remaining binding at 1 µM [13] | remaining binding at 1 µM [14] | remaining binding at 1 µM [15] | remaining binding at 1 µM [16] | remaining binding at 1 µM [17] | remaining binding at 1 µM [18] | percent of control binding at 1 µM [19] | remaining binding at 1 µM [20] | also measured
Cc1cn(-c2cc(NC(=O)c3cc(C#Cc4cnc5c(Nc6cnn(C)c6)cccn45)c(C)cc3F)cc(C(F)(F)F)c2)cn1 [Example 4, 2-fluoro-4-methyl-N-(3-(4-methyl-1H-imidazol-1-yl)-5-(trifluoromethyl)phenyl)-5-((8-((1-methyl-1H-pyrazol-4-yl)amino)imidazo[1,2-a]pyridin-3-yl)ethynyl)benzamide] | 2.9% | 2.5% | 0.8% | 0% | 79% | 56% | 65% | 57% | 0% | 88% | 53% | 12% | 11% | 4.5% | 0% | 64% | 41% | 35% | 100% | 2.8% | remaining binding at 1 µM [21]: 12%; percent of control binding at 1 µM [22]: 75%; remaining binding at 1 µM [23]: 92%; % Cont @ 1 uM [24]: 70%; remaining binding at 1 µM [25]: 15%; remaining binding at 1 µM [26]: 1.2%; remaining binding at 1 µM [27]: 96%; % Cont @ 1 uM [28]: 57%; remaining binding at 1 µM [29]: 100%; remaining binding at 1 µM [30]: 14%; remaining binding at 1 µM [31]: 0.95%; remaining binding at 1 µM [32]: 4.3%; remaining binding at 1 µM [33]: 44%; remaining binding at 1 µM [34]: 1.4%; remaining binding at 1 µM [35]: 12%; remaining binding at 1 µM [36]: 31%; remaining binding at 1 µM [37]: 11%; percent of control binding at 1 µM [38]: 92%
Cc1cn(-c2cc(NC(=O)c3cc(C#Cc4cnc5c(Nc6cnn(C)c6)cccn45)c(C)cc3F)cc(C(C)(C)C#N)c2)cn1 [Example 1, N-(3-(2-cyanopropane-2-yl)-5-(4-methyl-1H-imidazol-1-yl)phenyl)-2-fluoro-4-methyl-5-((8-((1-methyl-1H-pyrazol-4-yl)amino)imidazo[1,2-a]pyridin-3-yl)ethynyl)benzamide] | 1.2% | 0.2% | 0.3% | 0.15% | 29% | 5.2% | 16% | 5.5% | 0% | 23% | 2.8% | 3.5% | 1.4% | 0.45% | 0% | 17% | 2% | 31% | 27% | 1.4% | remaining binding at 1 µM [21]: 2.9%; percent of control binding at 1 µM [22]: 33%; remaining binding at 1 µM [23]: 27%; % Cont @ 1 uM [24]: 4%; remaining binding at 1 µM [25]: 0.75%; remaining binding at 1 µM [26]: 0%; remaining binding at 1 µM [27]: 0.7%; % Cont @ 1 uM [28]: 10%; remaining binding at 1 µM [29]: 34%; remaining binding at 1 µM [30]: 0%; remaining binding at 1 µM [31]: 0%; remaining binding at 1 µM [32]: 0.35%; remaining binding at 1 µM [33]: 1.6%; remaining binding at 1 µM [34]: 0.1%; remaining binding at 1 µM [35]: 1.6%; remaining binding at 1 µM [36]: 30%; remaining binding at 1 µM [37]: 1.6%; percent of control binding at 1 µM [38]: 29%

— US12673945B2, “3-((8-((1H-pyrazol-4-yl)amino)imidazo[1,2-a]pyridin-3-yl)ethinyl)-n-phenylbenzamide derivative, method for preparing same, and pharmaceutical composition containing same as active ingredient for prevention or treatment of cancer” (DAEGU-GYEONGBUK MEDICAL INNOVATION FOUNDATION, priority 2020, dated 2026)
